Source: patent US20170128519A1, “CASPASE INHIBITORS FOR THE TREATMENT OF COLORECTAL CANCER” (Conatus Pharmaceuticals, Inc., priority 2015, published 2017)

Test system: HT-29 cells
Assay: crystal violet assay of adherent HT-29 cells after 5-FU treatment
Format: cell-based, human
Experimental: 5-Fluoruracil (5-FU) was from Sigma Aldrich, Necrostatin-1 was from Enzo Life Sciences. HAT-29 human CRC cell line was obtained from ATCC after cell line authentication utilizing short tandem repeat (STR) profiling. Within four weeks all cell lines were expanded and frozen in aliquots. Cell lines were reauthenticated and regularly tested for contamination as provided by the German Cancer Research Center (DKFZ) Core Facility (Heidelberg). Cells were cultured in RPMI-1640 medium (Biochrom) containing 10% FCS (PAA Laboratories) and 1% penicillin/streptomycin at 5% CO2 and 37° C.
HT-29 cells were incubated with 20 μM IDN-7314 and/or 20 μM Necrostatin (N) for 2 hours prior to treatment with 5-Fluoruracil (5-FU, 50 or 100 mg/ml). After 48 hours, the number of adherent cells was determined via crystal violet assay (RLU=relative light units). […] This effect could be abolished by the RIP1-specific kinase inhibitor, necrostatin, the reduced number of cells is due to induction of necrotic cell death.

| SMILES | number of adherent cells (crystal violet assay, RLU) (20 μM IDN-7314 for 2 hours prior to 5-FU (50 or 100 mg/ml), read after 48 hours) | sensitization of colon cancer cells to chemotherapy-induced necrotic cell death (FIG. 1) (IDN-7314 with 5-FU) | effect of necrostatin on the reduction of adherent cells by IDN-7314 co-treatment (20 μM Necrostatin with 20 μM IDN-7314 for 2 hours prior to 5-FU (50 or 100 mg/ml), 48 hours) |
| --- | --- | --- | --- |
| C[C@H](NC(=O)C(=O)Nc1c(F)cccc1F)C(=O)N[C@@H](CC(=O)O)C(=O)COc1c(F)c(F)cc(F)c1F [IDN-7314] | significantly reduced the number of adherent cells | sensitizes colon cancer cells to chemotherapy-induced necrotic cell death | – |
| CN1C(=O)C(Cc2c[nH]c3ccccc23)NC1=S (stereo not drawn) [necrostatin, Necrostatin-1, reference compound] | – | – | abolished |
